This is an account of results in patent US9415094B2, “Method of reducing side effects associated with administration of tissue plasminogen activator (tPA)” (INSERM (Institut National de la Sante et de la Recherche …, priority 2009, dated 2016).

Series [1] has as its system elastase-treated mice (emphysema). The series is described as follows: Elastase-induced emphysema in mice. It is filed as in vivo. Conditions: HDL 75 mg/kg; AAT alone 3.75 mg/kg; i.v., 4 injections. On the procedure:
First, large amount of HDL purified from human plasma by ultracentrifugation was pooled in order to work with the same batch of HDL and HDL enriched with AAT. AAT was incubated for 16 hours at 37° C. under gentle agitation. […] A Western-Blot for AAT and apolipoprotein A-I was performed on HDL and HDL loaded with AAT. […] Anti-elastase assay was performed in parallel, corroborating the results obtained by WB. These experiments quantify AAT in enriched HDL. The same amount of free AAT was then injected in a control group. The aim of this experiment is to test whether HDL-AAT prevent more the development of emphysema relative to AAT injected alone. HDL containing naturally AAT are also injected in another group.
45 mice are subjected to intra-tracheal elastase instillation.
The mice were sacrificed 28 day after initial instillation of elastase, and the emphysema was semi-quantified by scoring alveoli destruction (double blind determination by two independent pathologists).

Series [2] concerns transient filament MCAO. The series can be described thus: Transient filament MCAO (fMCAO) with tPA (Example 9). The source says:
STAIR recommendations have been followed to avoid bias due to experimental design 10. Animal care and experimental protocols were approved by the Animal Ethics Committee of the INSERM-University Paris 7. Male Sprague-Dawley rats (Janvier, France) weighing 300 to 350 g, were anesthetized by isoflurane mixed with air (4% for induction; 1% during surgery), under spontaneous respiration. Two different models of focal cerebral ischemia were used as requested by STAIR recommendations: embolic (eMCAO) and transient filament MCAO (fMCAO). Focal cerebral ischemia was induced by intraluminal occlusion of the middle cerebral artery for 4 hours. eMCAO was induced by injection of a preformed clot at the origin of MCA as already described. Continuous laser Doppler flowmetry (VMS, Moor Instrument) was used to monitor regional cerebral perfusion to ensure the adequacy of filament MCA occlusion (perfusion decreased to <20% of preischemic baselines). […] Saline (2.0 mL/kg body weight) with or without recombinant tPA (10 mg/kg body weight; Actilyse, Boehringer Ingelheim) was administered (10% bolus, 90% continuous infusion) to rats via the right femoral vein. The relatively high dose of tPA was necessary to achieve a fibrinolytic effect in rats similar to that of thrombolytic therapy in humans. Continuous tPA or saline infusion (for 30 min. Harvard Apparatus Infusion Pump) started 4 hours after stroke onset, immediately before recanalization (after withdrawal of the filament in fMCAO), or 4 hours after clot placement in the MCA. After saline or tPA administration, rats were returned to their cages. Body temperature was maintained at 37° C.±0.5 with a heating pad for the duration of surgery. Glycemia, arterial blood pressure and blood gases were also monitored during surgery. […] Computer-based randomization was used to allocate drug regimens to each group. Experiments were blinded and the operator was unaware of group allocation during surgery and outcome assessment.
Seven coronal sections of the brain (2 mm in thickness) were stained with 2% 2,3,5-triphenyltetrazolium chloride (TTC, Sigma-Aldrich) for 20 minutes at room temperature. […] Volume calculation with oedema correction was performed blindly using the following formula: 100× (contralateral hemisphere volume−non infarct ipsilateral hemisphere volume)/contralateral hemisphere volume. […] Ten-micrometer sections were cut from the caudal site of all 7 slices and analyzed before TTC staining. Areas of hemorrhagic transformation from these 7 brain sections were measured using Photoshop software by semi-automatic selection of extravasated erythrocytes.

Series [3] has as its system embolic MCAO. The series is described as follows: Embolic MCAO (eMCAO) with tPA (Example 9). The source says:
STAIR recommendations have been followed to avoid bias due to experimental design 10. Animal care and experimental protocols were approved by the Animal Ethics Committee of the INSERM-University Paris 7. Male Sprague-Dawley rats (Janvier, France) weighing 300 to 350 g, were anesthetized by isoflurane mixed with air (4% for induction; 1% during surgery), under spontaneous respiration. Two different models of focal cerebral ischemia were used as requested by STAIR recommendations: embolic (eMCAO) and transient filament MCAO (fMCAO). Focal cerebral ischemia was induced by intraluminal occlusion of the middle cerebral artery for 4 hours. eMCAO was induced by injection of a preformed clot at the origin of MCA as already described. Continuous laser Doppler flowmetry (VMS, Moor Instrument) was used to monitor regional cerebral perfusion to ensure the adequacy of filament MCA occlusion (perfusion decreased to <20% of preischemic baselines). […] Saline (2.0 mL/kg body weight) with or without recombinant tPA (10 mg/kg body weight; Actilyse, Boehringer Ingelheim) was administered (10% bolus, 90% continuous infusion) to rats via the right femoral vein. The relatively high dose of tPA was necessary to achieve a fibrinolytic effect in rats similar to that of thrombolytic therapy in humans. Continuous tPA or saline infusion (for 30 min. Harvard Apparatus Infusion Pump) started 4 hours after stroke onset, immediately before recanalization (after withdrawal of the filament in fMCAO), or 4 hours after clot placement in the MCA. […] Glycemia, arterial blood pressure and blood gases were also monitored during surgery. […]
Seven coronal sections of the brain (2 mm in thickness) were stained with 2% 2,3,5-triphenyltetrazolium chloride (TTC, Sigma-Aldrich) for 20 minutes at room temperature. […] Ten-micrometer sections were cut from the caudal site of all 7 slices and analyzed before TTC staining. Areas of hemorrhagic transformation from these 7 brain sections were measured using Photoshop software by semi-automatic selection of extravasated erythrocytes.

In series [4] the test system is blood-brain barrier. The series can be described thus: IgG extravasation in filament MCAO model. It is filed as in vivo, Sprague-Dawley rats. Conditions: tPA vs saline; combination vs tPA alone. On the procedure: Blood-brain barrier permeability was evaluated in vivo by using fluorescence detection of IgG extravasation in filament MCAO model. At 24 hours after stroke, rats were deeply anesthetized with pentobarbital and transcardially perfused with saline. Brains were removed, cut in 2 mm coronal sections, embedded with OCT and frozen. Ten μm sections (at +0.70 mm posterior to bregma) were prepared. Sections were prepared and incubated overnight at 4° C. with donkey anti-rat IgG antibodies (5 μg/mL, Molecular Probes) labelled with Alexa Fluor® 488. IgG extravasation was quantified semi-automatically with morphometry software (Histolab 6.1.5, Microvision Instruments).

Series [5] has as its system collagen IV (basal lamina of cerebral microvessels). The series is described as follows: Collagen IV immunoreactivity in cerebral microvessels (filament MCAO). It is filed as in vivo, Sprague-Dawley rats. The note with it: 24 hours after stroke; combination relative to tPA alone. The protocol: Frozen sections were fixed with 3.7% paraformaldehyde and blocked with 10% goat serum. Sections were incubated overnight at 4° C. with a rabbit polyclonal to collagen IV (2 μg/mL, Abcam) for detection of basal lamina of intracerebral vessels. FITC-conjugated Bandeiraea Simplicifolia Lectin I (isolectin B4) (5 μg/mL, Vector Laboratories) was used to visualize endothelial cells. Non-immune rabbit IgG were included in each set of experiments as primary antibody to test the specificity of the signal. We used Alexa-Fluor® 555 as secondary antibodies. Immunostaining was analysed with a fluorescent microscope interfaced with a digital capture system. All immunohistological evaluations were carried out by an observer who was blinded to the treatment. For semi-quantification of the collagen type IV expression, three fields of each territory were acquired using a×10 objective. A threshold of fluorescence intensity, which encompasses positive vessels on the contralateral image, was applied to each corresponding ipsilateral image. IHC analysis was performed in filament MCAO model.

In series [6] the test system is hCMEC/D3 cells. The series is described as follows: In vitro blood-brain barrier model with tPA under OGD. It is filed as cell-based, human. The protocol:
The human brain endothelial cell line hCMEC/D3 kindly provided by Dr. P. O. Couraud. Cells were cultured in complete EBM-2 medium (Endothelial Basal Medium+2.5% of fetal calf serum and supplements containing hydrocortisone and growth factors).
OGD (Oxygen Glucose Deprivation) conditions were obtained by using DMEM medium without glucose (Gibco) versus 1 g/L glucose DMEM for non-OGD conditions. Oxygen deprivation was obtained by using a hypoxia chamber (Billups-Rothenberg) where atmospheric air was replaced by a mix of gas (0% O2, 5% CO2, 95% N2, Air Product). DMEM used for OGD conditions was equilibrated with the same mix.
For permeability experiments, hCMEC/D3 cells were seeded at 5.105 cells/cm^2 on collagen inserts (PCF filters, 0.4 μm pore size, Millicell 24-well plates, Millipore) in complete EBM-2. Cells were grown for 14 days post-confluence before use. Permeability was assessed using fluorescein isothiocyanate (FITC) labelled dextran (70 kDa molecular weight). […] 200 μL from the collecting wells were transferred into a 96-well plate, and the dextran fluorescence was determined on the microplate reader at 485 nm (excitation) and 538 nm (emission). Fluorescence was converted to concentration using a standard curve. The volume cleared was calculated from the ratio of dextran concentration in each sample to the applied concentration (0.385 mg/mL). The endothelial permeability coefficient Pe (cm/min) was calculated by determining the volumes of clearance of dextran with or without cells. The cleared volume was calculated from the […], and plotted against time. PS (permeability surface) was calculated from 1/PS=1/PSe−1/PSf, where PSe is the slope of clearance in the presence of cells and PSf is the slope for a blank insert (cell free)16. […]
For detection of fibronectin in HCMEC/D3 cell culture supernatant, 5 μL of conditioned medium were analyzed by SDS-8% PAGE. […]

The conditions of series [7]: acute phase of stroke; cited from earlier work.

Regarding “AAT: 52 kD glycoprotein, natural inhibitor of neutrophil elastase”, the “protective effect on development of emphysema” value in series [1] is “mild protective effect”.
On to “tPA: recombinant tissue plasminogen activator, thrombolytic drug approved for stroke”, for which the “edema surrounding ischemic cerebral vessels” value in series [2] (compared to HDL+tPA group) was “Large edema”. Besides, the infarct volume entry was “increased infarct volume” in series [2] (fMCAO, 24 hours, tPA and HDL alone vs saline, combination vs tPA alone); “increased infarct volume” in series [3] (24 hours, tPA and HDL alone vs saline, combination vs tPA alone). The mortality rate in series [2] (fMCAO, tPA 10 mg/kg 4 hours after stroke onset, 24 hours) is listed as 86.05%; in series [3] (tPA 10 mg/kg 4 hours after stroke onset, 24 hours), 56.25%. Also, the mortality entry in series [2] (fMCAO, tPA and HDL alone vs saline, combination vs tPA alone) is on record as “increased”; in series [3] (tPA and HDL alone vs saline, combination vs tPA alone) it was “increased”. For the same substance, the “IgG extravasation in the ischemic hemisphere” value in series [4] is reported as “significantly increased IgG extravasation”. In addition, in series [5], the “number of collagen IV immunoreactive vessels in the infarcted area” value is recorded as “decreased”. The “VE-cadherin intercellular junction organization” value in series [6] (200 nM tPA and/or 400 μg/mL HDL) is “induced a disorganization of intercellular junctions”. Further, in series [6] (200 nM tPA and/or 400 μg/mL HDL, Western Blot), the “release of soluble fibronectin/fragments in supernatants” value is listed as “induced an important release of fibronectin/fragments”. Further, the “BBB permeability in vitro” value in series [6] (200 nM tPA, 4 hours of stimulation) was “neither tPA nor OGD were sufficient to induce increased BBB permeability”. Also, in series [7], the “increase in symptomatic cerebral haemorrhage” value was 10 fold.
